{"source": "paper PMC6010046", "about": "“Evaluation of polyphenols from Broussonetia papyrifera as coronavirus protease inhibitors” (Journal of Enzyme Inhibition and Medicinal Chemistry, 2017)", "key": {"MERS-CoV PL^pro": {"molecular_target": "MERS-CoV PL^pro (Middle East respiratory syndrome-related coronavirus, UniProt K9N7C7)", "sequence (K9N7C7 1436-1803 limits assumed)": "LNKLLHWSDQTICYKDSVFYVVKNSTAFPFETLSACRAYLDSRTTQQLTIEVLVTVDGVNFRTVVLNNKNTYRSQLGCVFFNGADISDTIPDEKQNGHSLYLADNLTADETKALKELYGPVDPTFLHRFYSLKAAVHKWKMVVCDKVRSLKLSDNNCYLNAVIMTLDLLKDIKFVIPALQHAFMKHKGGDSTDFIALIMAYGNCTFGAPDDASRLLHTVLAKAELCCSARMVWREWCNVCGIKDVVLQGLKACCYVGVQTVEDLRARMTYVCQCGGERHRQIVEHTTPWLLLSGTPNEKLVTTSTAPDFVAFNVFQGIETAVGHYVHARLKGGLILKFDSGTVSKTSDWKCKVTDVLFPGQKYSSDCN", "experiment": "biochemical"}, "SARS-CoV PL^pro [1]": {"molecular_target": "T1, SARS-CoV PL^pro (Severe acute respiratory syndrome coronavirus, UniProt P0C6X7)", "format": "biochemical"}, "SARS-CoV 3CL^pro": {"molecular_target": "SARS-CoV 3CL^pro (Severe acute respiratory syndrome coronavirus, UniProt P0C6X7)", "experiment": "biochemical"}, "MERS-CoV 3CL^pro": {"molecular_target": "MERS-CoV 3CL^pro (Middle East respiratory syndrome-related coronavirus, UniProt K9N7C7)", "sequence (K9N7C7 3247-3553 limits assumed)": "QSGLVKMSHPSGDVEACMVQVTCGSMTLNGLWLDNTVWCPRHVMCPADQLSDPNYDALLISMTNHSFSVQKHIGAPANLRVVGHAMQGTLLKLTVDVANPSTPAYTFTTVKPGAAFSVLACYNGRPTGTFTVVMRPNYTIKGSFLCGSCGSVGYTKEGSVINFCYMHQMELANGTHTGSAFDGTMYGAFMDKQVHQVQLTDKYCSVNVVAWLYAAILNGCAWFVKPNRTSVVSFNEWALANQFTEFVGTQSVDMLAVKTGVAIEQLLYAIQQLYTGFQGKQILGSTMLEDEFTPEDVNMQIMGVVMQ", "experiment": "biochemical"}, "SARS-CoV PL^pro [2]": {"molecular_target": "T1, SARS-CoV PL^pro", "experiment": "biochemical", "format": "binding", "conditions": "for kon: read-out: association rate constant ka; for koff: read-out: dissociation rate constant kd"}}, "note": "Entries after “also recorded” stand apart in the source; their conditions may differ. Like-named read-outs stand apart in the source and are kept apart here."}
{"smiles": "CC(C)=CCc1c([C@@H]2CCc3ccc(O)cc3O2)cc2c(c1O)OC(C)(C)C=C2", "note": "[Compound 7, kazinol B]", "values": [{"measurement": "IC50", "setting": "MERS-CoV PL^pro", "value": "94.9 ± 13.1", "unit": "µM"}, {"measurement": "SARS-CoV PL^pro, LRLRGG-AMC, Inhibition type", "setting": "SARS-CoV PL^pro [1]", "value": "Noncompetitive (36.7 ± 2.7)"}, {"measurement": "IC50", "setting": "SARS-CoV 3CL^pro", "value": "233 ± 6.7", "unit": "µM"}]}
{"smiles": "O=c1c(O)c(-c2ccc(O)c(O)c2)oc2cc(O)cc(O)c12", "note": "[Quercetin, quercetin, reference compound]", "values": [{"measurement": "SARS-CoV PL^pro, LRLRGG-AMC, Inhibition type", "setting": "SARS-CoV PL^pro [1]", "value": "Noncompetitive (7.0 ± 0.7)"}, {"measurement": "IC50", "setting": "MERS-CoV 3CL^pro", "value": "34.8 ± 1.2", "unit": "µM"}]}
{"smiles": "CC(C)=CCc1c(CCCc2ccc(O)cc2O)cc(O)c(O)c1CC=C(C)C", "note": "[Compound 9, kazinol F]", "values": [{"measurement": "IC50", "setting": "MERS-CoV PL^pro", "value": "39.5 ± 5.1", "unit": "µM"}, {"measurement": "SARS-CoV PL^pro, LRLRGG-AMC, Inhibition type", "setting": "SARS-CoV PL^pro [1]", "value": "Noncompetitive (12.1 ± 0.7)"}, {"measurement": "IC50", "setting": "SARS-CoV 3CL^pro", "value": "43.3 ± 10.4", "unit": "µM"}, {"measurement": "IC50", "setting": "MERS-CoV 3CL^pro", "value": "135 ± 5.1", "unit": "µM"}]}
{"smiles": "CC(C)=CCc1cc(-c2oc3cc(O)c(CC=C(C)C)c(O)c3c(=O)c2O)cc(O)c1O", "note": "[Compound 4, papyriflavonol A]", "values": [{"measurement": "IC50", "setting": "MERS-CoV PL^pro", "value": "113 ± 7.3", "unit": "µM"}, {"measurement": "SARS-CoV PL^pro, LRLRGG-AMC, Inhibition type", "setting": "SARS-CoV PL^pro [1]", "value": "noncompetitive inhibition; also recorded: Noncompetitive (5.9 ± 0.4)"}, {"measurement": "Kd", "setting": "SARS-CoV PL^pro [2]", "value": 212, "unit": "µM"}, {"measurement": "kon", "setting": "SARS-CoV PL^pro [2]", "value": 21, "unit": "M⁻¹ s⁻¹"}, {"measurement": "koff", "setting": "SARS-CoV PL^pro [2]", "value": 0.00445, "unit": "s⁻¹"}, {"measurement": "melting point", "value": "202 to 204", "unit": "°C"}, {"measurement": "IC50", "setting": "SARS-CoV 3CL^pro", "value": "104 ± 17.4", "unit": "µM"}, {"measurement": "IC50", "setting": "MERS-CoV 3CL^pro", "value": "64.5 ± 4.9", "unit": "µM"}]}
{"smiles": "CC(C)=CCc1cc(C(=O)/C=C/c2ccc(O)c(O)c2)c(O)cc1O", "note": "[Compound 2, broussochalcone A]", "values": [{"measurement": "IC50", "setting": "MERS-CoV PL^pro", "value": "42.1 ± 5", "unit": "µM"}, {"measurement": "SARS-CoV PL^pro, LRLRGG-AMC, Inhibition type", "setting": "SARS-CoV PL^pro [1]", "value": "noncompetitive inhibition; also recorded: Noncompetitive (8.0 ± 0.4)"}, {"measurement": "Kd", "setting": "SARS-CoV PL^pro [2]", "value": 130, "unit": "µM"}, {"measurement": "kon", "setting": "SARS-CoV PL^pro [2]", "value": 29.9, "unit": "M⁻¹ s⁻¹"}, {"measurement": "koff", "setting": "SARS-CoV PL^pro [2]", "value": 0.00388, "unit": "s⁻¹"}, {"measurement": "IC50", "setting": "SARS-CoV 3CL^pro", "value": "88.1 ± 13", "unit": "µM"}, {"measurement": "IC50", "setting": "MERS-CoV 3CL^pro", "value": "36.2 ± 0.4", "unit": "µM"}]}
{"smiles": "CC1(C)C=Cc2cc(C(=O)/C=C/c3ccc(O)cc3)c(O)cc2O1", "note": "[Compound 3, 4-hydroxyisolonchocarpin]", "values": [{"measurement": "IC50", "setting": "MERS-CoV PL^pro", "value": "172 ± 10.2", "unit": "µM"}, {"measurement": "SARS-CoV PL^pro, LRLRGG-AMC, Inhibition type", "setting": "SARS-CoV PL^pro [1]", "value": "Noncompetitive (27.7 ± 1.7)"}, {"measurement": "IC50", "setting": "SARS-CoV 3CL^pro", "value": "203 ± 3.9", "unit": "µM"}, {"measurement": "IC50", "setting": "MERS-CoV 3CL^pro", "value": "194 ± 15.6", "unit": "µM"}]}
{"smiles": "O=C(/C=C/c1ccc(O)cc1)c1ccc(O)cc1O", "note": "[Isoliquiritigenin, isoliquiritigenin, reference compound]", "values": [{"measurement": "SARS-CoV PL^pro, LRLRGG-AMC, Inhibition type", "setting": "SARS-CoV PL^pro [1]", "value": "Noncompetitive (23.0 ± 0.9)"}, {"measurement": "IC50", "setting": "SARS-CoV 3CL^pro", "value": "61.9 ± 11", "unit": "µM"}]}
{"smiles": "CC(C)=CCc1cc(C2CCc3ccc(O)cc3O2)cc(O)c1O", "note": "(stereo not drawn) [Compound 5, 3′-(3-methylbut-2-enyl)-3′,4′,7-trihydroxyflavane]", "values": [{"measurement": "IC50", "setting": "MERS-CoV PL^pro", "value": "48.8 ± 6.6", "unit": "µM"}, {"measurement": "SARS-CoV PL^pro, LRLRGG-AMC, Inhibition type", "setting": "SARS-CoV PL^pro [1]", "value": "Noncompetitive (15.9 ± 0.8)"}, {"measurement": "IC50", "setting": "SARS-CoV 3CL^pro", "value": "30.2 ± 6.8", "unit": "µM"}, {"measurement": "IC50", "setting": "MERS-CoV 3CL^pro", "value": "34.7 ± 2", "unit": "µM"}]}
{"smiles": "COc1cc(O)ccc1CCCc1cc(O)c(O)c(CC=C(C)C)c1CC=C(C)C", "note": "[Compound 10, kazinol J]", "values": [{"measurement": "IC50", "setting": "MERS-CoV PL^pro", "value": "55 ± 1.3", "unit": "µM"}, {"measurement": "SARS-CoV PL^pro, LRLRGG-AMC, Inhibition type", "setting": "SARS-CoV PL^pro [1]", "value": "Noncompetitive (10.7 ± 0.9)"}, {"measurement": "Kd", "setting": "SARS-CoV PL^pro [2]", "value": 804, "unit": "µM"}, {"measurement": "kon", "setting": "SARS-CoV PL^pro [2]", "value": 7.3, "unit": "M⁻¹ s⁻¹"}, {"measurement": "koff", "setting": "SARS-CoV PL^pro [2]", "value": 0.00591, "unit": "s⁻¹"}, {"measurement": "IC50", "setting": "SARS-CoV 3CL^pro", "value": "64.2 ± 1.7", "unit": "µM"}, {"measurement": "IC50", "setting": "MERS-CoV 3CL^pro", "value": "109 ± 3.7", "unit": "µM"}]}
{"smiles": "CC(C)=CCc1cc([C@@H]2CCc3ccc(O)cc3O2)c(CC=C(C)C)c(O)c1O", "note": "[Compound 6, kazinol A]", "values": [{"measurement": "IC50", "setting": "MERS-CoV PL^pro", "value": "88.5 ± 3.9", "unit": "µM"}, {"measurement": "SARS-CoV PL^pro, LRLRGG-AMC, Inhibition type", "setting": "SARS-CoV PL^pro [1]", "value": "Noncompetitive (40.5 ± 3.4)"}, {"measurement": "IC50", "setting": "SARS-CoV 3CL^pro", "value": "84.8 ± 10.4", "unit": "µM"}]}
{"smiles": "O=c1c(O[C@@H]2O[C@H](CO)[C@H](O)[C@H](O)[C@H]2O)c(-c2ccc(O)c(O)c2)oc2cc(O)cc(O)c12", "note": "[Quercetin-β-galactoside, quercetin-β-galactoside, reference compound]", "values": [{"measurement": "IC50", "setting": "MERS-CoV PL^pro; pH 5.5, read-out: MERS-CoV PL^pro, IC50", "value": "129 ± 14.5", "unit": "µM"}, {"measurement": "SARS-CoV PL^pro, LRLRGG-AMC, Inhibition type", "setting": "SARS-CoV PL^pro [1]", "value": "Noncompetitive (56.1 ± 2.5)"}, {"measurement": "IC50", "setting": "MERS-CoV 3CL^pro; pH 6, read-out: MERS-CoV 3CL^pro, IC50", "value": "68 ± 2.4", "unit": "µM"}]}
{"smiles": "CC(C)=CCc1c([C@@H]2CCc3ccc(O)cc3O2)cc2c(c1O)OC(C)(C)C(O)C2O", "note": "(stereo partly drawn) [Compound 8, broussoflavan A]", "values": [{"measurement": "IC50", "setting": "MERS-CoV PL^pro", "value": "49.1 ± 7.5", "unit": "µM"}, {"measurement": "SARS-CoV PL^pro, LRLRGG-AMC, Inhibition type", "setting": "SARS-CoV PL^pro [1]", "value": "Noncompetitive (23.4 ± 1.6)"}, {"measurement": "melting point", "value": "238 to 240", "unit": "°C"}, {"measurement": "IC50", "setting": "SARS-CoV 3CL^pro", "value": "92.4 ± 2.1", "unit": "µM"}, {"measurement": "IC50", "setting": "MERS-CoV 3CL^pro", "value": "126 ± 17.4", "unit": "µM"}]}
{"smiles": "O=c1c(O)c(-c2ccc(O)cc2)oc2cc(O)cc(O)c12", "note": "[Kaempferol, kaempferol, reference compound]", "values": [{"measurement": "IC50", "setting": "MERS-CoV PL^pro", "value": "206.6 ± 1.7", "unit": "µM"}, {"measurement": "SARS-CoV PL^pro, LRLRGG-AMC, Inhibition type", "setting": "SARS-CoV PL^pro [1]", "value": "Noncompetitive (13.7 ± 0.8)"}, {"measurement": "IC50", "setting": "SARS-CoV 3CL^pro", "value": "116 ± 7.1", "unit": "µM"}, {"measurement": "IC50", "setting": "MERS-CoV 3CL^pro", "value": "35.3 ± 5.3", "unit": "µM"}]}
{"smiles": "CC(C)=CCc1cc(C(=O)/C=C/c2ccc(O)cc2)c(O)cc1O", "note": "[Compound 1, broussochalcone B]", "values": [{"measurement": "IC50", "setting": "MERS-CoV PL^pro", "value": "113 ± 10.1", "unit": "µM"}, {"measurement": "SARS-CoV PL^pro, LRLRGG-AMC, Inhibition type", "setting": "SARS-CoV PL^pro [1]", "value": "Noncompetitive (6.6 ± 0.5)"}, {"measurement": "Kd", "setting": "SARS-CoV PL^pro [2]", "value": 74, "unit": "µM"}, {"measurement": "kon", "setting": "SARS-CoV PL^pro [2]", "value": 56, "unit": "M⁻¹ s⁻¹"}, {"measurement": "koff", "setting": "SARS-CoV PL^pro [2]", "value": 0.00412, "unit": "s⁻¹"}, {"measurement": "IC50", "setting": "SARS-CoV 3CL^pro", "value": "57.8 ± 0.5", "unit": "µM"}, {"measurement": "IC50", "setting": "MERS-CoV 3CL^pro", "value": "27.9 ± 1.2", "unit": "µM"}]}
